Measurements as given in patent publication US11377444B2, “Pyridopyrimidine compounds acting as mTORC 1/2 dual inhibitors” (MEDSHINE DISCOVERY INC., priority 2017, dated 2022).
Like-named read-outs stand apart in the source and are kept apart here.

Legend:
MCF-7 cell = experiment: Cell proliferation inhibitory activity (Cell-Titer-Glo), MCF-7; assay type: cell-based; details: Homo sapiens, MCF7, 72 h; 3 days incubation
Description: (§1) Experimental Embodiment 2: Evaluation of Cell Proliferation Inhibitory Activity
(§2) Experiment objective: To detect cell proliferation inhibitory activity of the tested compounds.
(§3) Experimental principle: The luciferase in the Cell-Titer-Glo reagent produces oxyluciferin using luciferin, oxygen and ATP as reaction substrates, and releases energy in the form of light. Since the reaction of luciferase requires ATP, the total amount of light generated by the reaction is proportional to the total amount of ATP that reflects cell viability.
(§4) Cell lines: MCF-7 cell line […], HT-29 cell line (ATCC-HTB-38), OE21 (ECACC-96062201), NCI-N87 cell line (ATCC-CRL-5822)
(§5) Cell culture medium: (RPMI 1640 culture medium (Invitrogen #1868546; 10% serum Invitrogen #1804958; L-glutamine 1×, Invitrogen #1830863; dual antibiotic Hyclone #J170012))
(§6) Cell Titer-Glo® Luminescent Cell Viability Assay Kit (Promega #G7573)
(§7) The cells were inoculated in a 384- or 96-well plate with a density of 1000 cells per well and 25 μL per well according to the instructions of the cell inoculating plate. The edge wells were not inoculated with cells, and was supplemented with […].
(§8) (i) The mother solution of the compound was 10 mM, and diluted with DMSO to an initial concentration of 4 mM. The compound was added to the compound mother solution, 9 μL per well.
(§9) (ii) The compound was diluted with ECHO liquid-handling workstation. Each well of the cell plate was added with 125 nL compound. Each well of the cell wells in 2nd column and 23rd column was added with 125 nL DMSO, and each of the PBS wells in 1st column and 24th column was added with 125 nL DMSO.
(§10) (iii) Each well of the cell plate was supplemented with 25 μL culture medium, the final volume in each well of the cell plate was 50 μL, […] 3 times dilution, 10 concentrations, each concentration was duplicated in left and right wells, the final DMSO concentration was 0.25%.
(§11) 2.3. After addition of the compound, centrifugation was performed at 1000 rpm for 1 min, and the cell plate was placed in a 37° C., 5% CO2 incubator for 3 days.
(§12) The cell plate was taken out from the incubator and equilibrated at room temperature for 30 minutes. 25 μL Cell-Titer-Glo reagent was added to each well, shaken for one minute to mix thoroughly, centrifuged at 1000 rpm for 1 minute. After 10 minutes, the plate was read on PerkinElmer Envision with a […] reading time was set at 0.2 second.

HT-29 cell = experiment: Cell proliferation inhibitory activity (Cell-Titer-Glo), HT-29; assay type: cell-based; details: Homo sapiens, HT-29, 72 h, 3 days incubation
Description: as §1, §2, §3, §4, §5, §6, §7, §8, §9, §10, §11, §12

OE21 cell = experiment: Cell proliferation inhibitory activity (Cell-Titer-Glo), OE21; assay type: cell-based; details: OE21, 72 h; 3 days incubation
Description: as §1, §2, §3, §4, §5, §6, §7, §8, §9, §10, §11, §12

[1] = Pharmacokinetic evaluation in plasma after IV and PO administration; assay type: in vivo; details: female Balb/c mice; for AUC(0-inf) / AUC(0-t) / C0 / clearance / half-life / MRT inf / MRT last / Vd / Cmax / Tmax / bioavailability: mouse; for MRT inf: read-out: MRT0-inf; for MRT last: read-out: MRT0-last; for Vd: read-out: Vdss
Procedure: Experimental Embodiment 3: Pharmacokinetic Evaluation
The test compound was mixed with […] (Cremophor EL), vortexed and sonicated to prepare a 1 mg/mL near-clear solution, which was filtered with a microporous filter membrane for future use. Female Balb/c mice of 18 to 20 grams were selected and the solution of the test compound was administered intravenously at a dose of 1 or 2 mg/kg. The test compound was mixed with an aqueous solution of 1% Tween 80, 9% polyethylene glycol 400, and 90% water, vortexed and sonicated to prepare 1 mg/mL near-clear solution, which was filtered with a microporous filter membrane for future use.
Female Balb/c mice of 18 to 20 grams were selected, and the solution of the test compound was orally administered at a dose of 2 or 10 mg/kg. The whole blood was collected at a certain time, and prepared into plasma. The drug concentration was analyzed by LC-MS/MS, and the pharmacokinetic parameters were calculated using Phoenix WinNonlin software (Pharsight Corporation, USA).

[2] = target: T1, mTOR kinase (mTORC1 and mTORC2 kinase complex) (Homo sapiens, UniProt P42345); experiment: In vitro evaluation of mTOR kinase inhibitory activity (DiscoverX ligand-bead competition binding, qPCR readout)
T1 construct: purchased DiscoverX; host or cells: HEK-293
In short: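 Tagged mTOR expressed in HEK-293 cells was combined with streptavidin beads carrying biotinylated ligand and DMSO-dissolved compound, shaken 1 h at room temperature. Beads were washed, then eluted 30 min with […] non-biotin affinity ligand. Kinase in eluate quantified by qPCR.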

Structure (SMILES): CNC(=O)c1cccc(-c2ccc3c(N4CCOC[C@@H]4C)nc(N4CCOC[C@@H]4C)nc3n2)c1 [AZD2014, reference compound]
- IC50 (MCF-7 cell): 95 nM
- IC50 (HT-29 cell): 316 nM
- IC50 (OE21 cell): 148 nM
- Tlast ([1]; IV 1 mg/kg): 8.00 h
- AUCExtra ([1]; IV 2 mg/kg): 0.384%
- AUMCExtra ([1]; IV 2 mg/kg): 2.95%
- Tlast ([1]; IV 2 mg/kg): 8.00 h
- AUCExtra ([1]; PO 2 mg/kg): 0.0496%
- AUMCExtra ([1]; PO 2 mg/kg): 0.347%
- Tlast ([1]; PO 2 mg/kg): 12.0 h
- AUCExtra ([1]; PO 10 mg/kg): 0.156%
- AUMCExtra ([1]; PO 10 mg/kg): 1.82%
- Tlast ([1]; PO 10 mg/kg): 24.0 h
- AUC(0-inf) ([1]; IV 1 mg/kg): 4.28 µM·h
- AUC(0-t) ([1]; IV 1 mg/kg): 4.27 µM·h
- C0 ([1]; IV 1 mg/kg): 4.79 µM
- clearance ([1]; IV 1 mg/kg): 8.41 mL/min/kg
- half-life ([1]; IV 1 mg/kg): 0.967 h
- MRT inf ([1]; IV 1 mg/kg): 1.88 h
- MRT last ([1]; IV 1 mg/kg): 0.268 h
- Vd ([1]; IV 1 mg/kg): 0.677 L/kg
- AUC(0-inf) ([1]; IV 2 mg/kg): 8.91 µM·h
- AUC(0-t) ([1]; IV 2 mg/kg): 8.88 µM·h
- C0 ([1]; IV 2 mg/kg): 8.07 µM
- clearance ([1]; IV 2 mg/kg): 8.08 mL/min/kg
- half-life ([1]; IV 2 mg/kg): 1.05 h
- MRT inf ([1]; IV 2 mg/kg): 1.24 h
- MRT last ([1]; IV 2 mg/kg): 1.2 h
- Vd ([1]; IV 2 mg/kg): 0.599 L/kg
- AUC(0-inf) ([1]; PO 2 mg/kg): 7.24 µM·h
- AUC(0-t) ([1]; PO 2 mg/kg): 8.24 µM·h
- Cmax ([1]; PO 2 mg/kg): 4.37 µM
- Tmax ([1]; PO 2 mg/kg): 0.5 h
- bioavailability ([1]; PO 2 mg/kg): 96.2%
- half-life ([1]; PO 2 mg/kg): 1.14 h
- MRT inf ([1]; PO 2 mg/kg): 1.95 h
- MRT last ([1]; PO 2 mg/kg): 1.95 h
- AUC(0-inf) ([1]; PO 10 mg/kg): 41.5 µM·h
- AUC(0-t) ([1]; PO 10 mg/kg): 41.4 µM·h
- Cmax ([1]; PO 10 mg/kg): 17 µM
- Tmax ([1]; PO 10 mg/kg): 0.25 h
- bioavailability ([1]; PO 10 mg/kg): 93.1%
- half-life ([1]; PO 10 mg/kg): 3.46 h
- MRT inf ([1]; PO 10 mg/kg): 2.5 h
- MRT last ([1]; PO 10 mg/kg): 2.45 h

Structure (SMILES): CNC(=O)c1cccc(-c2ccc3c(N4CCOC[C@@H]4C)nc(N4CCOC5(CCC5)C4)nc3n2)c1 [Embodiment 23]
- Kd [2]: 0.38 nM
- IC50 (MCF-7 cell): 163 nM
- IC50 (HT-29 cell): 607 nM
- IC50 (OE21 cell): 257 nM
- AUCExtra ([1]; IV 2 mg/kg): 0.0592%
- AUMCExtra ([1]; IV 2 mg/kg): 0.616%
- Tlast ([1]; IV 2 mg/kg): 12.0 h
- AUCExtra ([1]; PO 10 mg/kg): 0.414%
- AUMCExtra ([1]; PO 10 mg/kg): 4.62%
- Tlast ([1]; PO 10 mg/kg): 24.0 h
- AUC(0-inf) ([1]; IV 2 mg/kg): 13.4 µM·h
- AUC(0-t) ([1]; IV 2 mg/kg): 13.4 µM·h
- C0 ([1]; IV 2 mg/kg): 12.2 µM
- clearance ([1]; IV 2 mg/kg): 5.08 mL/min/kg
- half-life ([1]; IV 2 mg/kg): 1.47 h
- MRT inf ([1]; IV 2 mg/kg): 1.36 h
- MRT last ([1]; IV 2 mg/kg): 1.35 h
- Vd ([1]; IV 2 mg/kg): 0.414 L/kg
- AUC(0-inf) ([1]; PO 10 mg/kg): 60.3 µM·h
- AUC(0-t) ([1]; PO 10 mg/kg): 60.1 µM·h
- Cmax ([1]; PO 10 mg/kg): 27.9 µM
- Tmax ([1]; PO 10 mg/kg): 0.25 h
- bioavailability ([1]; PO 10 mg/kg): 89.9%
- half-life ([1]; PO 10 mg/kg): 2.61 h
- MRT inf ([1]; PO 10 mg/kg): 2.49 h
- MRT last ([1]; PO 10 mg/kg): 2.39 h

Structure (SMILES): C[C@H]1COCCN1c1nc(N2CCOC3(CC3)C2)nc2nc(-c3cccc(C(N)=O)c3)ccc12 [Embodiment 51]
- Kd [2]: 0.3 nM
- IC50 (MCF-7 cell): 208 nM
- AUCExtra ([1]; IV 2 mg/kg): 0.0469%
- AUMCExtra ([1]; IV 2 mg/kg): 0.400%
- Tlast ([1]; IV 2 mg/kg): 12.0 h
- AUCExtra ([1]; PO 10 mg/kg): 0.225%
- AUMCExtra ([1]; PO 10 mg/kg): 1.02%
- Tlast ([1]; PO 10 mg/kg): 12.0 h
- AUC(0-inf) ([1]; IV 2 mg/kg): 9.37 µM·h
- AUC(0-t) ([1]; IV 2 mg/kg): 9.73 µM·h
- C0 ([1]; IV 2 mg/kg): 8.24 µM
- clearance ([1]; IV 2 mg/kg): 7.72 mL/min/kg
- half-life ([1]; IV 2 mg/kg): 1.1 h
- MRT inf ([1]; IV 2 mg/kg): 1.6 h
- MRT last ([1]; IV 2 mg/kg): 1.59 h
- Vd ([1]; IV 2 mg/kg): 0.739 L/kg
- AUC(0-inf) ([1]; PO 10 mg/kg): 42 µM·h
- AUC(0-t) ([1]; PO 10 mg/kg): 41.9 µM·h
- Cmax ([1]; PO 10 mg/kg): 12.8 µM
- Tmax ([1]; PO 10 mg/kg): 0.25 h
- bioavailability ([1]; PO 10 mg/kg): 89.5%
- half-life ([1]; PO 10 mg/kg): 1.22 h
- MRT inf ([1]; PO 10 mg/kg): 3.04 h
- MRT last ([1]; PO 10 mg/kg): 3.02 h
